Data from the supplement of paper PMC13380429.
± gives the standard deviation of the averaged measurements.

What was measured:
Settings in all cases: 72 h
Caco-2 [1] = assay: relative viability EC50 (midpoint between 100% and the lowest measured viability); higher = less toxic
Vero E6 [2] = assay: as above
U2OS [3] = assay: as above
HepG2 [4] = assay: as above
Calu-3 [5] = assay: as above
Caco-2 [6] = assay: drug sensitivity score (DSS) for viability; higher = more toxic; extreme values may be limits of the assay
Vero E6 [7] = assay: as above
U2OS [8] = assay: as above
HepG2 [9] = assay: as above
Calu-3 [10] = assay: as above
Caco-2 [11] = assay: cell viability relative to DMSO; higher = less toxic
Vero E6 [12] = assay: as above
U2OS [13] = assay: as above
HepG2 [14] = assay: as above
Calu-3 [15] = assay: as above

Row | SMILES | relative viability EC50 (Caco-2 [1]) [µM] | relative viability EC50 (Vero E6 [2]) [µM] | relative viability EC50 (U2OS [3]) [µM] | relative viability EC50 (HepG2 [4]) [µM] | relative viability EC50 (Calu-3 [5]) [µM] | drug sensitivity score (Caco-2 [6]) | drug sensitivity score (Vero E6 [7]) | drug sensitivity score (U2OS [8]) | drug sensitivity score (HepG2 [9]) | drug sensitivity score (Calu-3 [10]) | cell viability (Caco-2 [11]; 1 nM) [%] | cell viability (Caco-2 [11]; 10 nM) [%] | cell viability (Caco-2 [11]; 100 nM) [%] | cell viability (Caco-2 [11]; 1000 nM) [%] | cell viability (Caco-2 [11]; 10000 nM) [%] | cell viability (Vero E6 [12]; 1 nM) [%] | cell viability (Vero E6 [12]; 10 nM) [%] | cell viability (Vero E6 [12]; 100 nM) [%] | cell viability (Vero E6 [12]; 1000 nM) [%] | cell viability (Vero E6 [12]; 10000 nM) [%] | cell viability (U2OS [13]; 1 nM) [%] | cell viability (U2OS [13]; 10 nM) [%] | cell viability (U2OS [13]; 100 nM) [%] | cell viability (U2OS [13]; 1000 nM) [%] | cell viability (U2OS [13]; 10000 nM) [%] | cell viability (HepG2 [14]; 1 nM) [%] | cell viability (HepG2 [14]; 10 nM) [%] | cell viability (HepG2 [14]; 100 nM) [%] | cell viability (HepG2 [14]; 1000 nM) [%] | cell viability (HepG2 [14]; 10000 nM) [%] | cell viability (Calu-3 [15]; 1 nM) [%] | cell viability (Calu-3 [15]; 10 nM) [%] | cell viability (Calu-3 [15]; 100 nM) [%] | cell viability (Calu-3 [15]; 1000 nM) [%] | cell viability (Calu-3 [15]; 10000 nM) [%]
1 | O=C1COc2c(CCNCCN(C(=O)CCNCCc3ccc(Cl)c(Cl)c3)C3CCCCC3)ccc(O)c2N1 [AZ505] | > 10 | > 10 | > 10 | > 10 | > 10 | 0 | 0 | 0 | 0 | 0 | 104 | 98.4 | 95.8 | 97.8 | 97.9 | 107 | 99.4 | 104 | 99.7 | 109 | 102 | 101 | 99.2 | 103 | 91.2 | 95.9 | 98.6 | 118 | 97.2 | 89.4 | 88.2 | 89.6 | 108 | 102 | 105
2 | CN(CCc1ccc(Cl)c(Cl)c1)CCN1CCCC1 [BD-1008] | > 10 | > 10 | > 10 | > 10 | > 10 | 0 | 0 | 0 | 0 | 0 | 101 | 96.7 | 95.5 | 93.8 | 94.2 | 100 | 96.2 | 94.2 | 95 | 106 | 97.4 | 96.5 | 97 | 93.2 | 93.3 | 91.5 | 107 | 104 | 117 | 106 | 95.8 | 98.5 | 94.6 | 96.9 | 101
3 | O=C(O)c1cc2ccccc2s1 [BL-5583] | > 10 | > 10 | > 10 | > 10 | > 10 | 0 | 0 | 0 | 0 | 0 | 97.7 | 107 | 102 | 102 | 100 | 102 | 95.7 | 97.5 | 101 | 93 | 103 | 105 | 100 | 100 | 98 | 112 | 109 | 97.4 | 98.8 | 110 | 98 | 106 | 106 | 98.7 | 141
4 | CNC(=O)c1ccc2c(c1)S(=O)(=O)c1ccccc1C2=O [BW-616U] | > 10 | > 10 | > 10 | > 10 | > 10 | 0 | 0 | 0 | 0 | 0 | 96.6 | 108 | 111 | 92.4 | 99.4 | 95.2 | 95.9 | 98.1 | 109 | 106 | 99.1 | 95 | 100 | 99.4 | 98.9 | 109 | 106 | 92.7 | 110 | 104 | 115 | 104 | 102 | 100 | 96.7
5 | CCCCCn1cc(C(=O)NC23CC4CC(CC(C4)C2)C3)c(=O)c2cc(-c3ccccc3)ccc21 [COR-170] | > 10 | > 10 | > 10 | > 10 | > 10 | 0 | 0 | 0 | 0 | 0 | 90.9 | 103 | 100 | 100 | 98.3 | 100 | 97.7 | 103 | 106 | 94.8 | 96.2 | 99.9 | 98.3 | 94.7 | 99.9 | 103 | 93.6 | 91 | 105 | 92.1 | 105 | 89.2 | 104 | 98.2 | 97
6 | NC(=O)c1ccc(-c2nc(-c3ccc4c(c3)OCCO4)c(-c3ccccn3)[nH]2)cc1 [D-4476] | > 10 | > 10 | > 10 | > 10 | > 10 | 0 | 0 | 0 | 0 | 0 | 93 | 95.1 | 92.4 | 92.8 | 98.6 | 102 | 93.4 | 100 | 106 | 106 | 96.1 | 97.9 | 96.7 | 99.5 | 91.9 | 105 | 103 | 96.3 | 96 | 105 | 84.4 | 101 | 96.1 | 108 | 98.8
7 | CN1CCN(C(=O)O[C@H]2c3nccnc3C(=O)N2c2ccc(Cl)cn2)CC1 [ESZOPICLONE] | > 10 | > 10 | > 10 | > 10 | > 10 | 0 | 0 | 0 | 0 | 0 | 93.8 | 98.3 | 94.3 | 98.6 | 100 | 97.3 | 101 | 93.6 | 97.2 | 111 | 98.3 | 87.6 | 99.5 | 98.3 | 96.6 | 97.2 | 95.2 | 92.8 | 102 | 101 | 109 | 106 | 91.2 | 104 | 99.6
8 | NC(=O)c1cccc(-c2cc(Nc3ccc(OC(F)(F)F)cc3)ncn2)c1 [GNF-2] | > 10 | > 10 | > 10 | > 10 | > 10 | 1.3 | 0 | 0 | 1.3 | 0.5 | 102 | 102 | 104 | 87.1 | 83.7 | 104 | 99 | 94.6 | 106 | 102 | 103 | 99.2 | 99.1 | 102 | 103 | 108 | 99.6 | 93.4 | 96.4 | 77.3 | 104 | 103 | 97.9 | 90.3 | 86.6
9 | O=S(=O)(Cc1ccccc1)Nc1ccc(-c2ccc3c(cnn3-c3ccc(F)cc3)c2)c(C(F)(F)F)c1 [GSK9027] | > 10 | > 10 | > 10 | > 10 | > 10 | 0.4 | 0 | 0 | 0.1 | 0 | 90.8 | 98.6 | 99.7 | 97.7 | 85.5 | 96 | 94.2 | 91.1 | 95.2 | 110 | 94.7 | 93.7 | 100 | 95.9 | 93.7 | 96 | 94.4 | 95.3 | 104 | 86.3 | 103 | 105 | 97.6 | 92.2 | 97.1
10 | CCOC(=O)C1=C(N)Oc2ccc(Br)cc2C1C(C#N)C(=O)OCC (stereo not given) [HA-14-1] | > 10 | > 10 | > 10 | > 10 | > 10 | 0 | 0 | 0 | 0 | 0 | 99 ± 3.9 | 95.2 ± 4.1 | 104 ± 4.9 | 99.7 ± 4.6 | 99.5 ± 5 | 93 | 100 | 90 | 97.7 | 99.3 | 95 | 99.9 | 99 | 101 | 110 | 100 ± 2.5 | 97.3 ± 9.6 | 98.2 ± 4.7 | 95.7 ± 7.4 | 96.8 ± 7.7 | 95.2 ± 7.3 | 105 ± 8.6 | 97 ± 0.99 | 98.2 ± 4.5 | 108.6 ± 0.14
11 | N[C@@H](Cc1ccc(O)cc1)C(=O)NCC(=O)NCC(=O)O [IMREG-1] | > 10 | > 10 | > 10 | > 10 | > 10 | 0 | 0 | 0 | 0.1 | 0 | 98.2 | 91.6 | 103 | 91.3 | 97.1 | 90.7 | 96.8 | 92.6 | 97.9 | 89.8 | 104 | 95 | 97.6 | 93.5 | 102 | 101 | 102 | 92 | 103 | 86.8 | 102 | 99.5 | 101 | 98.5 | 108
12 | CC(=O)NCCC(=O)N[C@@H](Cc1c[nH]cn1)C(=O)O [N-acetylcarnosine] | > 10 | > 10 | > 10 | > 10 | > 10 | 0 | 0 | 0 | 0 | 0 | 97.3 | 105 | 88.7 | 86.5 | 112 | 112 | 92.1 | 102 | 108 | 98.4 | 98 | 101 | 101 | 97.5 | 94.7 | 98.8 | 88.3 | 93.3 | 96.2 | 87.9 | 106 | 99.2 | 94.5 | 101 | 96.3
13 | O=C(O)c1cc([N+](=O)[O-])ccc1NCCCc1ccccc1 [NPPB] | > 10 | > 10 | > 10 | > 10 | > 10 | 0 | 0 | 0 | 0 | 0 | 102 | 87.7 | 93.5 | 95.5 | 94.5 | 94.9 | 98.3 | 90.5 | 94 | 105 | 101 | 98.3 | 100 | 96.4 | 94.8 | 91.7 | 101 | 97.5 | 102 | 99.9 | 99.7 | 105 | 101 | 114 | 96.2
14 | N#Cc1ccc(NCCNCC(=O)N2CCC[C@H]2C#N)nc1 [NVP-DPP728] | > 10 | > 10 | > 10 | > 10 | > 10 | 0 | 0 | 0 | 0 | 0 | 96.6 | 100 | 97.1 | 106 | 104 | 97.5 | 97.8 | 90.3 | 91.6 | 104 | 96.2 | 98.3 | 101 | 102 | 99.4 | 112 | 98.6 | 102 | 97.3 | 106 | 101 | 92.1 | 96.5 | 104 | 110
